In ChEMBL document CHEMBL5321289, “Establishment of an MR1 Presentation Reporter Screening System and Identification of Phenylpropanoid Derivatives as MR1 Ligands” (J Med Chem, 2023):
Active and inactive are the calls of the source. The calls are words filed in the database; no cut-off is given here.

Key:
HeLa [1] = test: Effect on MR1-specific presentation in human HeLa overexpressing MR1 assessed as increase in HLA-A/B/C cell surface levels incubated for 8 hrs followed by labeling with PE-conjugated anti-hMR1 antibody and APC-conjugated anti-HLA-A/B/C antibody by flow cytometry analysis; type: functional, cell-based
HeLa [2] = test: Induction of cell surface translocation of MR1 in human HeLa overexpressing MR1 assessed as increase in MR1 cell surface levels at 10 uM incubated for 8 hrs followed by labeling with PE-conjugated anti-hMR1 antibody by flow cytometry analysis; type: functional, cell-based
TG40 cell [3] = test: Activation of mouse TG40 cells transfected with MAIT-alpha/betaTCR co-cultured with human HeLa cells overexpressing human MR1 assessed as upregulation of CD69 surface expression […] at 10 uM incubated for 24 hrs by flow cytometry; type: functional, cell-based
[4] = Cytotoxicity against mouse TG40 cells transfected with MAIT-alpha/betaTCR assessed as reduction in cell viability at 30 to 100 uM incubated for 24 hrs by MTS assay; type: toxicity, cell-based; conditions: dose 30-100 µM
[5] = Cytotoxicity against mouse TG40 cells transfected with MAIT-alpha/betaTCR assessed as reduction in cell viability at 3 to 10 uM incubated for 24 hrs by MTS assay; type: toxicity, cell-based; conditions: dose 3-10 µM
HeLa [6] = test: Cytotoxicity against human HeLa cells overexpressing MR1 assessed as reduction in cell viability at 3 to 100 uM incubated for 24 hrs by MTS assay; type: toxicity, cell-based; conditions: dose 3-100 µM
[7] = Induction of cell surface translocation of MR1 in human HeLa overexpressing MR1 assessed as increase in MR1 cell surface levels incubated for 8 hrs followed by labeling with PE-conjugated anti-hMR1 antibody by flow cytometry analysis; type: functional, cell-based
HeLa [8] = test: Cytotoxicity against human HeLa cells overexpressing MR1 assessed as reduction in cell viability at 3 to 100 uM incubated for 8 hrs by MTS assay; type: toxicity, cell-based; conditions: dose 3-100 µM
HEK293 = test: Induction of cell surface translocation of MR1 in human HEK293 cells expressing N-terminal HiBit-tagged human beta2m/MR1 assessed as increase in MR1 cell surface expression level at 10 uM incubated for 8 hrs followed by labeling with PE-conjugated anti-hMR1 antibody by flow cytometry analysis; type: functional, cell-based
HeLa [9] = test: Induction of cell surface translocation of MR1 in human HeLa overexpressing MR1 assessed as increase in MR1 cell surface levels at 0.1 to 10 uM incubated for 8 hrs followed by labeling with PE-conjugated anti-hMR1 antibody by flow cytometry analysis; type: functional, cell-based; conditions: dose 0.1-10 µM
[10] = Inhibition of 5-OR-RU induced activation of mouse TG40 cells transfected with MAIT-alpha/betaTCR co-cultured with human HeLa cells overexpressing human MR1 assessed as upregulation of CD69 surface expression […] incubated for 24 hrs by flow cytometry; type: functional, cell-based; conditions: TG40 cell
TG40 cell [11] = test: Activation of mouse TG40 cells transfected with MAIT-alpha/betaTCR co-cultured with human HEK293 cells expressing N-terminal HiBit-tagged human beta2m/MR1 assessed as upregulation of CD69 surface expression on TG40 cells at 1 uM incubated for 24 hrs by flow cytometry; type: functional, cell-based
TG40 cell [12] = test: Activation of mouse TG40 cells transfected with MAIT-alpha/betaTCR co-cultured with human […] expressing N-terminal HiBit-tagged human beta2m/MR1 assessed as upregulation of CD69 surface expression […] at 1 uM incubated for 24 hrs by flow cytometry; type: functional, cell-based
TG40 cell [13] = test: Activation of mouse TG40 cells transfected with MAIT-alpha/betaTCR co-cultured with human HEK293 cells expressing N-terminal HiBit-tagged human beta2m/MR1 assessed as upregulation of CD69 surface expression on TG40 cells at 10 uM incubated for 24 hrs by flow cytometry; type: functional, cell-based

With `O=C/C=C/c1ccc(O)c(O)c1` [CAFFEOYL ALDEHYDE] the Activity (HeLa [1]) was “inactive”, the Activity (HeLa [2]) was “Active” and the Activity (TG40 cell [3]) was “inactive”. For the same molecule, the Activity [4] was “Toxic”, the Activity [5] was “Non-Toxic” and the Activity (HeLa [6]) was “Non-Toxic”. The EC50 [7] was 2.58 µM and the Activity (HeLa [8]) was “Non-Toxic”.

With `O=Cc1ccc(O)c(C(=O)O)c1` the Activity (HEK293) was “Active”.

For `COCCOC(=O)/C(=C\c1cc(C(C)(C)C)c(O)c(C(C)(C)C)c1)C(C)=O`, the Activity (TG40 cell [3]) was “inactive” and the Activity (HeLa [9]) was “Dose-Dependent Effect”.

For `COc1cc(/C=C/C#N)ccc1O`, the Activity (HeLa [2]) was “inactive”.

For `COc1cc(/C=C/C=O)c(OC)c2c1OCO2`, the Activity (HeLa [2]) was “inactive”.

With `COc1ccccc1/C=C/C=O` the Activity (HeLa [2]) was “inactive”.

For `O=CC1=Cc2ccc(O)cc2OC1`, the Activity (HeLa [2]) was “inactive”.

In the case of `Nc1nc2ncc(C=O)nc2c(=O)[nH]1`, the IC50 [10] is reported as 0.505 µM, the Activity [4] is reported as “Toxic” and the Activity [5] is reported as “Non-Toxic”. For the same molecule, the Activity (HeLa [6]) was “Non-Toxic”, the EC50 [7] was 1.63 µM and the Activity (HeLa [8]) was “Non-Toxic”.

In the case of `COc1cccc(/C=C/C=O)c1`, the Activity (HeLa [2]) is reported as “inactive”.

For `COc1ccc(O)c(/C=C/C=O)c1`, the Activity (HeLa [2]) was “inactive”.

In the case of `COc1cc(C#C[Si](C)(C)C)c(C=O)cc1OC`, the Activity (TG40 cell [3]) is reported as “inactive” and the Activity (HeLa [9]) is reported as “Dose-Dependent Effect”.

In the case of `COc1cc(I)c(C=O)cc1OC`, the Activity (TG40 cell [3]) is reported as “inactive” and the Activity (HeLa [9]) is reported as “Dose-Dependent Effect”.

With `CN(C)c1cc(/C=C/C=O)ccc1O` the Activity (HeLa [2]) was “inactive”.

In the case of `COc1cc(C=O)ccc1O`, the Activity (HeLa [2]) is reported as “inactive”.

With `COc1ccc(/C=C(\C)C=O)cc1` the Activity (HeLa [2]) was “inactive”.

In the case of `COc1cc(/C=C/C(=O)O)ccc1O`, the Activity (HeLa [2]) is reported as “inactive”.

With `COc1cc(/C=C/C=C/C=O)ccc1O` the Activity (HeLa [2]) was “inactive”.

For `COc1cc(/C=C/C(C)=O)ccc1O`, the Activity (HeLa [2]) was “inactive”.

In the case of `O=C/C=C/c1ccccc1`, the Activity (HeLa [2]) is reported as “inactive”.

With `COc1cc(O)ccc1/C=C/C=O` the Activity (HeLa [1]) was “inactive”, the IC50 [10] was 7.93 µM and the Activity (HeLa [2]) was “Active”. The Activity (TG40 cell [3]) was “inactive”, the Activity [4] was “Toxic” and the Activity [5] was “Non-Toxic”. For the same molecule, the Activity (HeLa [6]) was “Non-Toxic”, the EC50 [7] was 5.27 µM and the Activity (HeLa [8]) was “Non-Toxic”.

With `COc1cc(/C=C/C=O)cc2c1OCO2` the Activity (HeLa [2]) was “inactive”.

In the case of `COc1ccc(/C=C/C=O)cc1O`, the Activity (HeLa [2]) is reported as “inactive”.

With `O=Cc1c(O)cccc1I` the Activity (TG40 cell [3]) was “inactive” and the Activity (HeLa [9]) was “Dose-Dependent Effect”.

In the case of `COc1cc(/C=C/C=O)c[nH]c1=O`, the Activity (HeLa [2]) is reported as “inactive”.

With `O=Cc1ccccc1C#C/C=C/CO` the Activity (TG40 cell [3]) was “inactive” and the Activity (HeLa [9]) was “Dose-Dependent Effect”.

With `CC(C)(C)c1cc(C=O)c(O)c(C=O)c1` the Activity (TG40 cell [3]) was “inactive” and the Activity (HeLa [9]) was “Dose-Dependent Effect”.

For `O=C/C=C/c1ccccc1O`, the Activity (HeLa [2]) was “inactive”.

For `Cc1ccc(/C=C/C=O)cc1`, the Activity (HeLa [2]) was “inactive”.

With `COc1cc(/C=C/C=O)ccc1O` [CONIFERYL ALDEHYDE] the Activity (HeLa [1]) was “inactive”, the IC50 [10] was 11.6 µM and the Activity (TG40 cell [3]) was “inactive”. For the same molecule, the Activity [4] was “Toxic”, the Activity [5] was “Non-Toxic” and the Activity (HeLa [6]) was “Non-Toxic”. For the same molecule, the Activity (HeLa [9]) was “Dose-Dependent Effect”, the EC50 [7] was 9.03 µM and the Activity (HeLa [8]) was “Non-Toxic”.

For `CC(=O)/C=N/c1c(NC[C@H](O)[C@H](O)[C@H](O)CO)[nH]c(=O)[nH]c1=O`, the Activity (TG40 cell [11]) was “Active”, the Activity (TG40 cell [12]) was “inactive” and the Activity (HEK293) was “Active”.

For `COc1cc(CCC=O)ccc1O`, the Activity (HeLa [2]) was “inactive”.

With `COc1ccc(/C=C/C=O)cc1` the Activity (HeLa [2]) was “inactive”.

For `CCCCCC/C(C=O)=C\c1ccccc1`, the Activity (HeLa [2]) was “inactive”.

For `CC(=O)Nc1nc(O)c2nc(C=O)cnc2n1`, the Activity (HeLa [1]) was “inactive”, the IC50 [10] was 0.017 µM and the Activity [4] was “Toxic”. The Activity (TG40 cell [13]) was “inactive”, the Activity [5] was “Non-Toxic” and the Activity (HeLa [6]) was “Non-Toxic”. The Activity (HEK293) was “Active”, the EC50 [7] was 0.153 µM and the Activity (HeLa [8]) was “Non-Toxic”.

In the case of `CC(C)=CCc1cc(/C=C/C=O)ccc1O`, the Activity (HeLa [2]) is reported as “inactive”.

In the case of `COc1cc(/C=C/C=O)cc(OC)c1O`, the Activity (HeLa [2]) is reported as “inactive”.

In the case of `O=C/C=C/c1ccc(O)cc1`, the Activity (HeLa [2]) is reported as “inactive”.

With `COc1cc(/C=C/C=O)c(OC)cc1O` the Activity (HeLa [1]) was “inactive”, the IC50 [10] was 7.34 µM and the Activity (HeLa [2]) was “Active”. The Activity (TG40 cell [3]) was “inactive”, the Activity [4] was “Toxic” and the Activity [5] was “Non-Toxic”. The Activity (HeLa [6]) was “Non-Toxic”, the EC50 [7] was 3.89 µM and the Activity (HeLa [8]) was “Non-Toxic”.
